For orientation: Inhibition means the share of the control response that was lost under treatment. Low values mean a response near the control, high ones a response far below the control.

Consider seven compounds from ChEMBL document CHEMBL1137937, “Synthesis and pharmacological evaluation of prenylated and benzylated pterocarpans against snake venom” (2004).

What all share (assay type): functional
Test [1] is filed under the species Mus musculus. The test can be described thus: Inhibition of the increase of the rate of CK release induced by […] of Bothrops jararacussu venom on isolated EDL mouse muscles after 60 min of exposure at 0.1-30 uM.
Test [2] is filed under the species Mus musculus. As to the kind of experiment: Inhibition of the increase of the rate of CK release induced by […] of Bothrops jararacussu venom on isolated EDL mouse muscles after 60 min of exposure at 10-30 uM.
The species entered for test [3] is Mus musculus. As to the kind of experiment: Inhibition of the increase of the rate of CK release induced by […] of Bothrops jararacussu venom on isolated EDL mouse muscles after 60 min of exposure at 0.1-1.0 uM.
The species named for test [4] is Mus musculus. As to the kind of experiment: Inhibition of the increase of the rate of CK release induced by […] of Bothrops jararacussu venom on isolated EDL mouse muscles after 60 min of exposure at 0.1-10 uM.

In the test filed under Mus musculus [1], `Oc1ccc2c(c1Cc1ccccc1)OC[C@H]1c3cc4c(c(Cc5ccccc5)c3O[C@@H]21)OCO4` had an Inhibition of 0%.

In the case of `Oc1ccc2c(c1)OC[C@H]1c3cc4c(cc3O[C@@H]21)OCO4` [MAACKIAIN], the Inhibition in the test filed under Mus musculus [1] turned out to be 0%.

`CC(C)=CCc1c2c(cc3c1O[C@H]1c4ccc(O)c(CC=C(C)C)c4OC[C@@H]31)OCO2`: the Inhibition in the test filed under Mus musculus [1] is on record as 0%.

In the case of `CC(C)=CCc1c(O)ccc2c1OC[C@H]1c3cc4c(cc3O[C@@H]21)OCO4`, the results for the Inhibition in the test listed under Mus musculus [2] and in the test filed under Mus musculus [3] were 0% and greater than 40%, respectively.

`Oc1ccc2c(c1)OC[C@H]1c3cc4c(c(Cc5ccccc5)c3O[C@@H]21)OCO4` showed an Inhibition in the test filed under Mus musculus [1] of 0%.

The compound `Oc1ccc2c(c1Cc1ccccc1)OC[C@H]1c3cc4c(cc3O[C@@H]21)OCO4` came in with an Inhibition in the test listed under Mus musculus [4] greater than 70%.

On to `CC(C)=CCc1c2c(cc3c1O[C@H]1c4ccc(O)cc4OC[C@@H]31)OCO2`, for which, in the test filed under Mus musculus [1], the Inhibition was found to be 0%.
